Experiment [1] relates to P388. Kind of experiment: Ratio of 5-Fluorouracil IC50 to compound IC50 for Mus musculus (mouse) P388 cells. The experiment is classed as functional.
The subject of experiment [2] is Bacillus subtilis. In words: Bactericidal activity against Bacillus subtilis. Format: functional.
Experiment [3] has as its system Staphylococcus aureus. In words: Bactericidal activity against Staphylococcus aureus. Format: functional.
Experiment [4] relates to Escherichia coli. In words: Antibacterial activity against Escherichia coli assessed as growth inhibition after 24 hr by tube dilution method. Format: functional.
In experiment [5] the test system is Bacillus subtilis. In words: Ratio of MBC to MIC for Bacillus subtilis. The experiment is classed as functional.
Experiment [6] concerns Candida albicans. In words: Antifungal activity against Candida albicans assessed as growth inhibition after 48 hr by tube dilution method. Format: functional.
Experiment [7] deals with Aspergillus niger. In words: Fungicidal activity against Aspergillus niger. Format: functional.
Experiment [8] concerns Staphylococcus aureus. Kind of experiment: Ratio of MBC to MIC for Staphylococcus aureus. The experiment is classed as functional.
Experiment [9] deals with P388. Kind of experiment: Cytotoxicity against Mus musculus (mouse) P388 cells assessed as growth inhibition after 72 hr by MTT assay. Format: functional, cell-based.
The subject of experiment [10] is HCT-116. Kind of experiment: Cytotoxicity against Homo sapiens (human) HCT116 cells assessed as growth inhibition after 72 hr by MTT assay. Format: functional, cell-based.
Experiment [11] has as its system Aspergillus niger. Kind of experiment: Antifungal activity against Aspergillus niger assessed as growth inhibition after 7 days by tube dilution method. Format: functional.
Experiment [12] has as its system Escherichia coli. In words: Ratio of MBC to MIC for Escherichia coli. The experiment is classed as functional.
The test system of experiment [13] is Escherichia coli. Kind of experiment: Bactericidal activity against Escherichia coli. The experiment is classed as functional.
In experiment [14] the test system is Staphylococcus aureus. Kind of experiment: Antibacterial activity against Staphylococcus aureus assessed as growth inhibition after 24 hr by tube dilution method. Format: functional.
For experiment [15], the system named is Bacillus subtilis. Kind of experiment: Antibacterial activity against Bacillus subtilis assessed as growth inhibition after 24 hr by tube dilution method. Format: functional.
Experiment [16] has as its system Aspergillus niger. In words: Ratio of MFC to MIC for Aspergillus niger. Format: functional.
Experiment [17] has as its system Candida albicans. Kind of experiment: Ratio of MFC to MIC for Candida albicans. Format: functional.
Experiment [18] has as its system MCF7. Kind of experiment: Cytotoxicity against Homo sapiens (human) MCF7 cells assessed as growth inhibition after 72 hr by MTT assay. The experiment is classed as functional, cell-based.
The test system of experiment [19] is Candida albicans. Kind of experiment: Fungicidal activity against Candida albicans. The experiment is classed as functional.

SMILES strings stand for the structures.

We go through 10 compounds from ChEMBL document CHEMBL3045122, “Synthesis, in vitro antimicrobial, antiproliferative, and QSAR studies of N-(substituted phenyl)-2/4-(1H-indol-3-ylazo)-benzamides” (Med Chem Res, 2013).

Regarding `Cc1cccc(NC(=O)c2ccc(/N=N\c3c[nH]c4ccccc34)cc2)c1`, in [1], the “Ratio IC50” value turned out to be 73. The MBC in [2], in experiment [3] and in experiment [13] was over 0.14 uM/ml in each case. In addition, the “-logMIC” value in [4] is reported as 1.75; in experiment [6], 1.45; in experiment [11] it was 1.45; in experiment [14] it was 1.45; in experiment [15] it was 1.75. Besides, the Ratio in experiment [5], in experiment [8], in experiment [12], in experiment [16] and in experiment [17] was 3 in each case. Moreover, the MFC in experiment [7] and in experiment [19] was 0.04 uM/ml in each case. Moreover, the IC50 in [9] worked out at 0.0003 uM/ml; in experiment [10], 0.0989 uM/ml; in experiment [18], 0.0734 uM/ml.
Turning to `O=C(Nc1cccc([N+](=O)[O-])c1)c1ccc(/N=N\c2c[nH]c3ccccc23)cc1`, the MBC in experiment [2], in experiment [3] and in experiment [13] was over 0.13 uM/ml throughout. The “-logMIC” value in experiment [4] turned out to be 1.49; in experiment [6] it was 1.49; in experiment [11], 1.49; in experiment [14] it was 1.19; in experiment [15] it was 1.79. The Ratio in [5], in experiment [8], in experiment [12], in [16] and in experiment [17] was 3 each time. Further, the MFC in experiment [7] is recorded as 0.03 uM/ml; in [19], 0.06 uM/ml. For the same compound, the IC50 in [9] was found to be 0.0519 uM/ml; in experiment [10], 0.0701 uM/ml; in [18], 0.0519 uM/ml.
For the compound `Cc1ccc(NC(=O)c2ccc(/N=N\c3c[nH]c4ccccc34)cc2)c(C)c1`, the MBC in [2], in experiment [3] and in [13] was over 0.14 uM/ml in each case. Besides, the “-logMIC” value in [4], in [6], in experiment [11], in experiment [14] and in [15] was 1.47 in each case. In addition, the Ratio in experiment [5], in experiment [8], in experiment [12], in experiment [16] and in [17] was 3 each time. Besides, the MFC in [7] is given as 0.03 uM/ml; in experiment [19], 0.14 uM/ml. Further, the IC50 in experiment [9] is 0.1902 uM/ml; in experiment [10] it was 0.0761 uM/ml; in experiment [18], 0.087 uM/ml.
As for `O=C(Nc1cccc(Cl)c1)c1ccc(/N=N\c2c[nH]c3ccccc23)cc1`, the MBC in experiment [2], in experiment [3] and in [13] was over 0.13 uM/ml in each case. Besides, the “-logMIC” value in experiment [4], in experiment [6], in experiment [11], in [14] and in experiment [15] was 1.48 throughout. The Ratio in experiment [5], in experiment [8], in experiment [12], in [16] and in [17] was 3 each time. In addition, the MFC in experiment [7] is recorded as 0.03 uM/ml; in experiment [19], over 0.13 uM/ml. Besides, the IC50 in [9] is 0.2667 uM/ml; in [10], 0.08 uM/ml; in [18] it was 0.0827 uM/ml.
`O=C(Nc1ccccc1F)c1ccc(/N=N\c2c[nH]c3ccccc23)cc1`: the MBC in [2], in experiment [3] and in [13] was over 0.14 uM/ml each time. The “-logMIC” value in experiment [4], in experiment [6], in [11], in experiment [14] and in experiment [15] was 1.46 throughout. Moreover, the Ratio in [5], in experiment [8], in experiment [12], in [16] and in [17] was 3 throughout. The figures for the MFC in experiment [7] and in experiment [19] were 0.03 uM/ml and 0.07 uM/ml, respectively. The results for the IC50 in [9], in experiment [10] and in experiment [18] were 0.1061 uM/ml, 0.5587 uM/ml and 0.0838 uM/ml, respectively.
On to `O=C(Nc1ccc([N+](=O)[O-])cc1)c1ccc(/N=N\c2c[nH]c3ccccc23)cc1`, for which the MBC in experiment [2], in experiment [3] and in experiment [13] was over 0.13 uM/ml each time. Further, the “-logMIC” value in experiment [4] is 1.79; in experiment [6], 1.49; in [11] it was 1.49; in experiment [14] it was 1.79; in experiment [15] it was 1.49. For the same compound, the Ratio in [5], in experiment [8], in [12], in experiment [16] and in experiment [17] was 3 throughout. For the same compound, the MFC is 0.03 uM/ml in experiment [7] and 0.13 uM/ml in experiment [19]. Further, the IC50 in experiment [9] is listed as 0.0112 uM/ml; in experiment [10], 0.1558 uM/ml; in experiment [18] it was 0.0545 uM/ml.
With `O=C(Nc1ccc(Cl)cc1)c1ccc(/N=N\c2c[nH]c3ccccc23)cc1`, the MBC in experiment [2], in experiment [3] and in experiment [13] was over 0.13 uM/ml throughout. Further, the “-logMIC” value in [4], in [6], in experiment [11], in [14] and in experiment [15] was 1.48 in each case. Moreover, the Ratio in experiment [5], in experiment [8], in experiment [12], in experiment [16] and in [17] was 3 each time. For the same compound, the MFC is on record as 0.13 uM/ml in experiment [7] and over 0.13 uM/ml in experiment [19]. In addition, the IC50 in [9] came to 0.08 uM/ml; in [10], 0.1867 uM/ml; in experiment [18], 0.1067 uM/ml.
`O=C(Nc1ccccc1)c1ccc(/N=N\c2c[nH]c3ccccc23)cc1`: the MBC in experiment [2], in experiment [3] and in experiment [13] was over 0.15 uM/ml each time. Moreover, the “-logMIC” value in experiment [4], in experiment [6], in experiment [11], in experiment [14] and in experiment [15] was 1.44 throughout. Besides, the Ratio in experiment [5], in [8], in experiment [12], in experiment [16] and in experiment [17] was 3 each time. The results for the MFC in [7] and in [19] were 0.07 uM/ml and over 0.15 uM/ml, respectively. The IC50 result in experiment [9] was “Not Active”; in [10], 0.1029 uM/ml; in [18], 0.1471 uM/ml.
For the compound `Cc1cccc(NC(=O)c2ccc(/N=N\c3c[nH]c4ccccc34)cc2)c1C`, the MBC in experiment [2], in experiment [3] and in [13] was over 0.14 uM/ml in each case. Besides, the “-logMIC” value in experiment [4] came out at 1.47; in experiment [6], 1.47; in experiment [11], 1.47; in [14] it was 1.77; in experiment [15], 1.47. Further, the Ratio in [5], in experiment [8], in [12], in experiment [16] and in [17] was 3 throughout. Moreover, the MFC in [7] is 0.03 uM/ml; in experiment [19], over 0.14 uM/ml. Besides, the IC50 in experiment [9] is given as 0.0516 uM/ml; in experiment [10], 0.2717 uM/ml; in experiment [18], 0.106 uM/ml.
With `O=C(Nc1ccccc1[N+](=O)[O-])c1ccc(/N=N\c2c[nH]c3ccccc23)cc1`, the MBC in experiment [2], in experiment [3] and in [13] was over 0.13 uM/ml each time. The “-logMIC” value in [4] came out at 1.49; in experiment [6] it was 1.49; in experiment [11], 1.49; in [14] it was 1.49; in [15] it was 1.79. The Ratio in experiment [5], in experiment [8], in experiment [12], in experiment [16] and in [17] was 3 in each case. Moreover, the MFC was 0.03 uM/ml in experiment [7] and over 0.13 uM/ml in experiment [19]. For the same compound, the figures for the IC50 in experiment [9], in experiment [10] and in experiment [18] were 0.0779 uM/ml, 0.2078 uM/ml and 0.1013 uM/ml, respectively.
